# Measured values reported in article PMC9857996, “Inhibition of Iron Release from Donkey Spleen Ferritin through Malt-Derived Protein Z–Ferulic Acid Interactions” (Foods, 2023).
# Molecular target: T1, protein Z (PZ)
# T1 construct: gene PAZ1; single band ~40 kDa; three Trp printed (Trp-150, Trp-186, Trp-257)
# Assay: Trp fluorescence quenching titration
# Type: binding, Hordeum vulgare
# Details: 50.0 mM sodium citrate pH 4.2, 25 °C; 1.0 μM PZ; n = 22.11 ± 2.13 sites per PZ; read-out: K
smiles,measurement,value
COc1cc(/C=C/C(=O)O)ccc1O [ferulic acid],Kd,2000 nM
